Measured values published in patent publication US9695173B2, “Pharmaceutical compositions for the treatment of capillary arteriopathy” (SINOXA PHARMA GMBH, priority 2006, dated 2017).

Assays:
Type in all cases: in vivo, rat
[1] = tested on: male Sprague-Dawley rats; experiment: Monocrotaline pulmonary hypertension model, treatment from day 14: right ventricular and systemic pressure
Description: (§1) 1 monocrotaline (60 mg/kg; Sigma) was administered to rats on the day of the experiment. For this purpose, the substance was dissolved in 0.5 molar hydrochloric acid and the pH value was then adjusted to 7.4 with 0.5 molar sodium hydroxide solution. The solution was administered to male Sprague-Dawley rats as a single subcutaneous injection in a dose of 60 mg/kg. The same volume of isotonic saline solution was administered to control animals.
(§2) The dosage specifications in this case relate to the free base of the substances. The substances were used as hydrogenmaleate salt or free base. They were introduced into distilled water in the presence of traces of ascorbic acid and administered by oesophageal tube in the morning and in the evening in a volume of 2 mL. The same quantity of water was administered to control animals.
(§3) On day 28 of the experiment, 2 hours after the last administration of the substance, the animals were put under general anesthesia using pentobarbital. Then, a tracheostomy was performed on the animals and the animals were respirated at 10 ml/kg and a frequency of […] (SAR830A/P; IITC). Anesthesia was maintained by inhalation of isoflurane.
The mean arterial pressure and the right ventricular systolic blood pressure were determined. The systemic arterial pressure was measured using a Millar catheter in the left carotid artery. A millar catheter with a pressure sensor (Millar Instruments, model SPR-534) was inserted through the right jugular vein and pushed up to the right ventricle of the heart and used for measuring the right ventricular pressure (RVSP). The signal was amplified by means of a HSE coupler Series 500 and supplied to a registration unit for evaluation.

[2] = tested on: male Sprague-Dawley rats; experiment: Monocrotaline pulmonary hypertension model, treatment from day 14: hydroxyproline (collagen) content of the lung; conditions: monocrotaline 60 mg/kg s.c. day 1; 0.25 mg/kg Lisuride bid or 2.5 mg/kg Terguride bid, days 14-28; right lung day 28; averages ± SEM, N=6
Description: as §1, §2
After the pressure measurements had been performed, the rats were perfused with physiological saline solution. The right lung was removed, deep-frozen and processed for determining the collagen content. To this end, the tissue was first homogenized and analyzed, drawing on the method by Berg (Meths Enzymol. 82, 372 (1982)). […] The color complex created was measured photometrically at 560 nm and the hydroxprolin content of the samples was determined by means of a calibration curve. […]

[3] = tested on: male Sprague-Dawley rats; experiment: Monocrotaline pulmonary hypertension model, treatment days 1-28: right ventricular hypertrophy; conditions: 0.4 mg/kg Terguride bid (table), dry weights, averages ± SD, N=4
Description: as §1
(§4) […] Terguride was introduced into distilled water in the presence of traces of ascorbic acid and administered by oesophageal tube in the morning and in the evening in a volume of 2 mL. The same quantity of physiological saline solution was administered to control animals.
After the pressure measurements had been performed, the rats were perfused with physiological saline solution. The heart was removed and prepared by dissection of the right ventricle, the septum as well as the left ventricle of each heart. The tissue preparations were freeze-dried and the dry weights were then determined by weighing out. For each individual animal, the quotient: weight of the right ventricle/weight of the left ventricle and septum (RV/LV+S) was determined from these animals as a measure for right ventricular hypertrophy.

[4] = tested on: male Sprague-Dawley rats; experiment: Monocrotaline pulmonary hypertension model, treatment days 1-28: muscularization of arterial capillary vessels of the lung; conditions: 0.4 mg/kg Terguride bid (table), lung arterial capillary vessels 20-50 μm, averages ± SD, N=4
Description: as §1, §4
The lungs were removed, fixated in formalin and embedded in paraffin. Paraffin sections were obtained and an immunohistochemical double staining was carried out according to standard protocols. Smooth muscle cells of the vessels were stained with an antibody against actin and the endothelium was stained by means of antibodies against von Willebrand factor. […] The vessels were subdivided into 3 categories: non-muscularized vessels with 20%, partially muscularized vessels with >20%, but <70%, and fully muscularized vessels with >70% lining of the cross-section of the vessel with smooth muscle cells.

[5] = tested on: male Sprague-Dawley rats; experiment: Monocrotaline pulmonary hypertension model, treatment days 1-28: RVSP and SAP; conditions: monocrotaline 60 mg/kg s.c. day 1, 0.4 mg/kg Terguride bid (table), measured day 28, averages ± SD, N=4
Description: as §1, §4, §3
The mean arterial pressure and the right ventricular systolic blood pressure were determined. The systemic arterial pressure was measured using a Millar catheter in the left carotid artery. […]

[6] = monocrotaline 60 mg/kg s.c. day 1, 0.25 mg/kg Lisuride bid or 2.5 mg/kg Terguride bid by oesophageal tube, days 14-28, measured day 28, averages ± SEM, N=6

Compound	RVPsys (systolic pressure in the right ventricle) [1, 6] [mmHg]	Increase in pressure in the right ventricle (in words) ([1]; monocrotaline rats, therapy started 14 days after monocrotaline)	Hydroxyproline content of the lung [2] [ug/g protein]	RV/LV + S (weight of right ventricle vs. weight of left ventricle and septum) [3]	SAP (systemic arterial pressure) [1, 6] [mmHg]	Proportion of fully muscularized vessel [4] [%]	Proportion of non-muscularized vessel [4] [%]	Proportion of partially muscularized vessel [4] [%]	RVSP (right ventricular systolic pressure) [5] [mmHg]	SAP (systemic arterial pressure) [5] [mmHg]
CCN(CC)C(=O)N[C@H]1C=C2c3cccc4[nH]cc(c34)C[C@H]2N(C)C1 [Lisuride, 3-(9,10-didehydro-6-methylergoline-8alpha-yl)-1,1-diethylurea]	43 ± 7	reduces	3.3 ± 0.8							
CCN(CC)C(=O)N[C@H]1C[C@@H]2c3cccc4[nH]cc(c34)C[C@H]2N(C)C1 [Terguride, (+)-1,1-diethyl-3-(6-methyl-8α-ergolinyl)-urea]	39 ± 3		2.7 ± 1.2	0.33 ± 0.08	111 ± 7	21.3 ± 12.6	1.9 ± 1.6	57.8 ± 14.6	36.4 ± 3.6	97.5 ± 15.2
